Patent publication US20040028623A1, “Formulations for the removal of dental plaque, tartar and dental stains” (priority 2000, published 2004)
Read-outs that look alike come from different tables or passages of the source.

What was measured:
[1] = aqueous solution of 2%, 30° C, without light, tooth rinsed and lightly brushed and solution changed every two days
Experimental: The in vitro evaluation of anti-tartar activity was carried out on an extracted tooth. The amount of tartar on said tooth was quantified before the test. The tooth was then immersed. Into an aqueous solution of 2% glutathlone and kept in a closed vessel without light at 30° C. Every two days said tooth was rinsed and lightly brushed and the solution was changed.

[2] = Experimental: (§1) In another clinical test five volunteers were chose, all male and smokers, characterized by a strong formation of dental calculus (tartar), especially IN the zone of the lingual face of the lower incisors. Each volunteer underwent an application of 500 mg of pure glutathione in powder on the lingual face of the lower incisors by means of a single-tuft toothbrush with medium bristles, followed by a tooth brushing for ten minutes with the same toothbrush. After a rinse with water the operation was repeated, always for ten minutes using a further 500 mg of glutathione.
[3] = remark: listed apart in the source
Experimental: as §1, with “in” for “IN”, “200” for “500”, “followed-by” for “followed by”

N[C@@H](CCC(=O)N[C@@H](CS)C(=O)NCC(=O)O)C(=O)O [glutathione]
time until removal of tartar was completed [1]: two to three weeks
time until removal of tartar was evident [1]: after only four days
removal of dental calculus (tartar) ([2]; all five volunteers, zones where brushing had been carried out, 2 x 500 mg powder, 2 x ten minutes brushing): complete removal
residual dental calculus (tartar) ([2]; sub-gingival and interstitial zones where brushing had not been properly carried out, 2 x 500 mg): presence of residual dental calculus (tartar)
reduction of dental calculus (tartar) ([3]; all five volunteers, zones where brushing had been carried out, 2 x 200 mg powder, 2 x ten minutes brushing): consistent reduction
residual dental calculus (tartar) ([3]; sub-gingival and interstitial zones where brushing had not been properly carried out, 2 x 200 mg): presence of residual dental calculus (tartar)
